Experimental data: patent US11419843B2, “Small molecule BCL-2 functional converters as cancer therapeutics” (Oregon State University, priority 2016, dated 2022)
Entries after “also recorded” stand apart in the source; their conditions may differ. Where two headings read alike, the source gives them in different places.

Tests used:
Bcl-2 loop domain = Bcl-2 loop domain (Homo sapiens, UniProt P10415); assay: Limited proteolysis of GST tagged Bcl-2 loop domain with trypsin; format: biochemical; details: for Proteolysis of Bcl-2 loop domain: 50 μM, trypsin 1, 2, 4 and 8 min
Experimental: FIG. 11B depicts proteolysis of Bcl-2 loop domain in the presence of methotrexate. GST tagged BCl-2 loop domain was incubated with 1 μM methotrexate at the indicated times to determine if methotrexate interaction with loop domain has an effect on the proteolysis pattern upon co incubation with trypsin.
Purified GST tagged Bcl-2 loop domain was incubated with 50 μM BFC1108 at the indicated times to determine if BFC1108 interaction with loop domain has an effect on the proteolysis pattern upon co-incubation with trypsin.
FIG. 22B depicts limited proteolysis of Bcl-2 loop domain in the presence of BFC1103.
GST-Bcl-2 and GST only fragments (60 μg) were incubated with 0.1% DMSO or BFC1103 (50 μM) for 1 h and proteolyzed by 3 μg/ml of trypsin for 1, 2, 4 and 8 min. Reactions were quenched by the addition of laemmli buffer. The resulting protease cleavage fragments were resolved on a 12% SDS-PAGE gel and visualized by coomassie blue staining.
GST-Bcl-2 loop71 and GST only fragments (60 μg) were incubated with 0.1% DMSO or BFC1103 (50 μM) for 1 h and proteolyzed by 3 μg/ml of trypsin for 1, 2, 4 and 8 min. Reactions were quenched by the addition of Laemmli buffer. The resulting protease cleavage fragments were resolved on a 12% SDS-PAGE gel and visualized by Coomassie blue staining.

[1] = test system: WT MEF, Bax−/− MEF, Bak−/− MEF and Bax−/− Bak−/− MEF cells; assay: Viability of MEF cells with or without Bax or Bak; format: cell-based, mouse; details: 24 h, 10% serum; for Bax/Bak dependence of effect on MEF viability: 1 μM, WT, Bak−/− and DKO MEF; for viability at 1 µM: Mus musculus, MEF, normalized to vehicle
Experimental: WT MEF, BAX^−/− MEF, BAK^−/− MEF and Bax^−/− Bak^−/− MEF cells were treated with MTX at 1 μM concentration for 24 h in 10% serum conditions. Viability was assessed using the Glo assay. MTX treatments were normalized to 100% of Vehicle.
FIG. 17C WT MEF, Bax−/− MEF, Bak−/− MEF and Bax−/− Bak−/− MEF cells were treated with 1 μM BFC1108 for 24 h in 10% FBS medium and viability was assessed using cell titer glo assay.
WT MEF, Bax^−/− MEF, Bak^−/− MEF and Bax^−/− Bak^−/− MEF cells were treated with 1 μM BFC1103 for 24 h in 10% FBS medium and viability was assessed using cell titer glo assay.

H460 cells = assay: JC-1 staining of mitochondrial membrane potential; format: cell-based, human; details: 16 h, 10% FBS, 10 μM for MTX and BFC1103
Experimental: JC-1 was used to stain live cells undergoing treatment with MTX at 10 μM for 16 h and images taken with FITC and Rhodamine filters were overlayed. Cells stained orange have intact mitochondrial outer membrane and the ones turning green have compromised outer membrane indicating loss of membrane potential.
FIG. 17D JC-1 stain was used to stain live H460 cells that were treated with […] for 16 h in 10% FBS containing medium and images taken with FITC and rhodamine filters were overlaid. Cells stained orange have intact mitochondrial outer membrane and the ones turning green have compromised outer membrane indicating loss of membrane potential.
JC-1 stain was used to stain live H460 cells treated with 10 μM BFC1103 for 16 h in 10% FBS containing medium and images taken with FITC and rhodamine filters were overlaid. Cells stained orange have intact mitochondrial outer membrane and the ones turning green have compromised outer membrane indicating loss of membrane potential.

[2] = test system: MDA-MB-231/Vector and MDA-MB-231/Bcl-2 cells; assay: Clonogenic survival of MDA-MB-231 cells; format: cell-based, human
[3] = test system: MDA-MB-468 cells with or without Bcl-2 expression; assay: Viability of MDA-MB-468 cells with Bcl-2 knockdown; format: cell-based, human; details: 10% FBS; for Effect of Bcl-2 knockdown on viability effect in MDA-MB-468 cells: 48 h
Experimental: For Bcl-2 knockdown experiments, MDA-MB-468 cells were seeded at 4,000 cells per well in a 96 well black plate. The day after seeding, cells were subjected to Bcl-2 knockdown with 25 ng siRNAs (Dharmacon Research, Lafayette, Colo.) or 25 ng control siRNA against luciferase (Dharmacon Research, Lafayette, Colo.) using Dharmafect as transfecting reagent. After 72 h of transfection time, cells were treated with indicated compounds for 48 h and viability was assayed with CellTiter Glo Luminescent Cell Viability Assay (Promega, Madison, Wis.).

[4] = test system: normal mammary epithelial cells (MCF-10A and HMECs); assay: Viability of normal mammary epithelial cells; format: cell-based, human
Description: FIG. 9F depicts viability of methotrexate treated breast cancer cell line (ZR-75-1) in comparison to normal mammary epithelial cells (MCF-10A and HMECs).

Bcl-2 = Bcl-2 (Homo sapiens, UniProt P10415); assay: Bcl-2 conformational change by Bcl-2 BH3 domain antibody and flow cytometry; details: 10 μM, 10% serum
Experimental: MDA-MB231/Bcl-2 cells and H460 cells were exposed to MTX at 10 μM concentration for 24 h in a medium containing 10% serum. Change in Bcl-2 conformation was determined using Bcl-2 BH3 only anti-body followed by flow cytometric analysis.
Change in conformation of Bcl-2 was determined by using Bcl-2 BH3 antibody followed by flow cytometric analysis.
Change in conformation of Bcl-2 was determined by using Bcl-2 BH3 only antibody followed by flow cytometric analysis.
When there is a conformational change in Bcl-2 protein, the BH3 domain is exposed and is detected by the Bcl-2 BH3 domain antibody.

[5] = test system: MDA-MB-231/Vector and MDA-MB-231/Bcl-2 cells; assay: Viability screening assay in MDA-MB-231 cells with high and low Bcl-2 (CellTiter Glo); format: cell-based, human; details: for Bcl-2 selective reduction in viability, MDA-MB-231/Bcl-2 vs MDA-MB-231/Vector: 10 μM, 10% serum; for Bcl-2 dependent reduction in viability, MDA-MB-231/Bcl-2 vs Vector: 10% FBS
Experimental: In one example, a triple negative breast cancer cell line, MDA-MB-231, was used for screening these libraries. […] At the end of the assay, cell viability was determined using the cell titer Glo assay. […] A hit was defined as a compound inducing more than 20% reduction in viability of MDA-MB-231/Bcl-2 cells, compared to vector controls (MDA-MB-231/Vector). In the next step these shortlisted small molecules were tested for their ability to convert the conformation of Bcl-2 into a pro-apoptotic one.
To screen for Bcl-2 selective compounds, MDA-MB-231 cells (MDA-MB-231/Vector and MDA-MB-231/Bcl-2) were plated at 4000 cells per well in a 96 well black opaque plate. The day after plating the cells, treatment from the library plates was done so as to add 1 μL of the compound into the cells, resulting in 10 μM concentration. For non-specific […], 25 nM of staurosporin was used. […] Post treatment viability was assessed by CellTiter Glo Cell Viability assay (Promega Inc., Madison, Wis.) as per manufacturer instructions.
Viability for test compounds in each cell line (MDA-MB-231/Vector and MDA-MB-231/Bcl-2) was normalized to their respective vehicle treatments. Compounds that had at least 20% less viability in the MDA-MB-231/Bcl-2 cell line than the MDA-MB-231/Vector cell line were selected as initial hits and shortlisted for revalidation. Revalidated compounds were reordered for further testing and characterization. All data analyses were performed using Microsoft Excel.

[6] = test system: Bcl-2 low and high expressing Jurkat lymphoma cells (Jurkat/Vector, Jurkat/Bcl-2); assay: Cell viability in Bcl-2 low and high expressing Jurkat cells; format: cell-based, human
[7] = 10 μM, 48 h, colony formation for 2 weeks

Sequence of Bcl-2 (P10415 whole entry, the tested form may be a part): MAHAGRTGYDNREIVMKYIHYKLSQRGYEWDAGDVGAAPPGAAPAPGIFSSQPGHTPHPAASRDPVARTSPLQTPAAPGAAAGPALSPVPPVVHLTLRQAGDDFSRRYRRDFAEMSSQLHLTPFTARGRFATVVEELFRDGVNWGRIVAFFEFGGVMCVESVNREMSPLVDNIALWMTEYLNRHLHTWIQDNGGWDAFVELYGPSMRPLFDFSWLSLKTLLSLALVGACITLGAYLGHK
Sequence of Bcl-2 loop domain (P10415 29-90 limits assumed): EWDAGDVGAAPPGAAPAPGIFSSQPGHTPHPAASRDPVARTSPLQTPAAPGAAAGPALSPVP

## CCCCc1ccc(NC(=O)CN(Cc2ccccc2)S(C)(=O)=O)cc1 [BFC1103, N-2-benzyl-N-1-(4-butylphenyl)-N-2-(methylsulfo-nyl) glycinamide]
Bcl-2 loop domain
  Proteolysis of Bcl-2 loop domain: delayed the proteolysis of the loop domain of Bcl-2
[1]
  Bax/Bak dependence of effect on MEF viability: wild type MEF cells, MEF cells without Bax or Bak expression had significant reduction in their viability compared to the double knockout (DKO) MEFs
H460 cells
  Mitochondrial membrane potential (JC-1 dye): decrease in their mitochondrial outer membrane potential
[2]; [7]
  Clonogenic survival of MDA-MB-231 cells over-expressing Bcl-2 vs control cells: formed significantly fewer colonies, compared to control cells
[3]
  Effect of Bcl-2 knockdown on viability effect in MDA-MB-468 cells: Suppression of Bcl-2 expression reduced the effect of BFC1103
[4]; 24 h, 10% FBS
  Viability of normal mammary epithelial cells MCF-10A: minimal effect on normal mammary epithelial cells (MCF-10A)
Bcl-2; 48 h
  Change in Bcl-2 conformation (BH3 domain exposure) in MDA-MB-231/Bcl-2 cells: changed conformation of Bcl-2 of was detected in MDA-MB-231/Bcl-2 cells
[5]; 24 h
  Bcl-2 selective reduction in viability, MDA-MB-231/Bcl-2 vs MDA-MB-231/Vector: Bcl-2 dependent reduction in viability of MDA-MB-231 cells; also recorded: Bcl-2 selective induction of cell death
[5]; hypoxic conditions
  Viability of MDA-MB-231 with increased Bcl-2 vs control cells under hypoxic conditions: significant reduction in viability of MDA-MB-231 with increased Bcl-2 expression compared to the control cells
[6]; 10 μM, 24 h, 10% serum
  Bcl-2 dependent effect on viability, Jurkat/Bcl-2 vs control: reduced the viability of Jurkat human T cell leukemia cells with high Bcl-2 expression, compared to control cells

## CCOc1ccccc1NC(=O)c1cc(Cl)ccc1NC(=O)c1ccc(OC)cc1 [BFC1108, 5-chloro-N-(2-ethoxyphenyl)-2-[(4-methoxybenzoyl)amino]-benzamide]
Bcl-2 loop domain
  Proteolysis of Bcl-2 loop domain: increased proteolysis of Bcl-2 loop domain was noticeable by 4 min time point
[1]
  Bax/Bak dependence of effect on MEF viability: no effect on viability in DKO MEFs, whereas Bax^−/− MEF and Bak^−/− MEF have diminished viability
H460 cells
  Mitochondrial membrane potential (JC-1 dye): decreased mitochondrial membrane potential
[2]; [7]
  Effect on colony forming ability of low Bcl-2 expressing 231/Vector control cells: not seen
  Reduction in colony forming ability of MDA-MB-231/Bcl-2 cells compared to vehicle controls: 50%
[3]
  Effect of Bcl-2 knockdown on viability effect in MDA-MB-468 cells: When Bcl-2 was knocked down, the cells were rescued from the effects of BFC1108
[4]; 48 h, 10% serum
  Viability of normal mammary epithelial cells MCF-10A: No effect on the viability of MCF-10A cells
Bcl-2; 48 h
  Change in Bcl-2 conformation (BH3 domain exposure) in MDA-MB-231/Bcl-2 cells: changed conformation of Bcl-2 was detected
[5]; 24 h
  Bcl-2 selective reduction in viability, MDA-MB-231/Bcl-2 vs MDA-MB-231/Vector: better Bcl-2 selective induction of cell death
[5]; 48 h
  Bcl-2 dependent reduction in viability, MDA-MB-231/Bcl-2 vs Vector: dose dependent reduction in viability of Bcl-2-high expressing cells (MDA-MB-231/Bcl-2), compared to their vector controls
[6]; 48 h, 10% FBS
  Bcl-2 dependent effect on viability, Jurkat/Bcl-2 vs Jurkat/Vector: reduction in viability was seen compared to their Bcl-2 low-expressing control cells

## CN(Cc1cnc2nc(N)nc(N)c2n1)c1ccc(C(=O)N[C@@H](CCC(=O)O)C(=O)O)cc1 [MTX, (2S)-2-[[4-[(2,4 diaminopteridin-6-yl)methylmethylamino]benzoyl]amino] pentanedioc acid]
Bcl-2 loop domain; 1 μM methotrexate, trypsin
  Proteolysis pattern of Bcl-2 loop domain: differential proteolysis pattern
[1]
  Bax/Bak dependence of effect on MEF viability: viability of Bax^−/− Bak^−/− MEF (DKO) cells was not effected
[1]; read-out: Viability, Bak−/− MEF
  viability at 1 µM: ~40%
[1]; read-out: Viability, Bax−/− MEF
  viability at 1 µM: ~40%
[1]; read-out: Viable cells, wild type MEF
  viability at 1 µM: ~30%
H460 cells
  Mitochondrial membrane potential (JC-1 dye): decrease in their mitochondrial membrane potential
[2]; 10 μM MTX, 24 h
  Reduction in colonies formed by MDA-MB-231/Bcl-2 cells compared to vector controls: 60%
[3]; various concentrations, 24 h
  Effect of Bcl-2 knockdown on effect in MDA-MB-468 cells: Knockdown of Bcl-2 in MDA-MB-468 cells diminished the apoptotic effect of MTX
[4]; similar concentrations of MTX as in cancer cells
  Viability of normal breast epithelial cells MCF-10A and HMEC: relatively unaffected
Bcl-2; 24 h
  Change in Bcl-2 conformation (BH3 domain exposure) in H460 cells: also observed in H460 cells
  Change in Bcl-2 conformation (BH3 domain exposure) in MDA-MB-231/Bcl-2 cells: considerable shift in the staining of MTX treated cells indicating change in the Bcl-2 conformation
[5]; 24 h
  Bcl-2 selective reduction in viability, MDA-MB-231/Bcl-2 vs MDA-MB-231/Vector: selectively induce more cell death in high-Bcl-2 expressing MDA-MB-231 cells
[5]; various concentrations, 24 h
  Bcl-2 dependent reduction in viability, MDA-MB-231/Bcl-2 vs Vector: reduced viability in MDA-MB-231/Bcl-2 cells significantly in comparison to the MDA-MB-231/Vector control cells
[6]; Bcl-2 low and high expressing Jurkat lymphoma cells treated for 72 hours with various concentrations
  Bcl-2 dependent effects in Jurkat Lymphoma cells: Yes
[6]; Homo sapiens, Jurkat lymphoma cells, 72 hours, n/d means no reduction was detected at concentrations tested, read-out: Lowest effective dose (minimal effective concentration that induced Bcl-2-dependent reduction in cell viability)
  minimal effective concentration: 0.01 µM
[6]; hypoxic conditions, 10% FBS, 24 h
  Viability of Jurkat/Bcl-2 vs Vector under hypoxic conditions: significant reduction in viability of Jurkat/Bcl-2 cells compared to their Vector control
[6]; supplemented with 1 μM of folic acid
  Bcl-2 dependent apoptosis with folate supplementation: Bcl-2 dependent apoptosis was still observed
